Experimental data published in ChEMBL document CHEMBL1201862, “PubChem BioAssay data set” (2004).
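Following 48 hours of exposure in 96-well plates, responses at five concentrations were used to interpolate endpoints linearly. GI50 marks 50% less growth.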 Active and inactive are the calls of the source. Cut-off read from the data, not from the text of the source: active = GI50 up to about 1.1 µM and inactive = higher.

How the values were obtained:
Experiment in all cases: DTP human tumour cell line panel, 48 h
NCI-H522 = test system: NCI-H522
NCI-H23 = test system: NCI-H23
OVCAR-3 = test system: OVCAR-3
SF-268 = test system: SF-268
HCT-15 = test system: HCT-15
DMS-273 = test system: DMS-273
A549 = test system: A549
HOP-62 = test system: HOP-62
IGROV-1 = test system: IGROV-1
HOP-92 = test system: HOP-92
SW-620 = test system: SW-620
ACHN = test system: ACHN
SR = test system: SR
CAKI-1 = test system: CAKI-1
UACC-257 = test system: UACC-257
SNB-78 = test system: SNB-78
TK-10 = test system: TK-10
HL-60 = test system: HL-60
HOP-18 = test system: HOP-18
SK-MEL-28 = test system: SK-MEL-28
SN12C = test system: SN12C
Malme-3M = test system: Malme-3M
EKVX = test system: EKVX
KM12 = test system: KM12
UO-31 = test system: UO-31
U-251 = test system: U-251
NCI-H460 = test system: NCI-H460
COLO 205 = test system: COLO 205
DMS-114 = test system: DMS-114
SF-539 = test system: SF-539
SNB-19 = test system: SNB-19
SNB-75 = test system: SNB-75
OVCAR-5 = test system: OVCAR-5
M14 = test system: M14
XF498 = test system: XF498
OVCAR-4 = test system: OVCAR-4
K562 = test system: K562
DLD-1 = test system: DLD-1
RXF 393 = test system: RXF 393
OVCAR-8 = test system: OVCAR-8
786-0 = test system: 786-0
LXFL 529 = test system: LXFL 529
MOLT-4 = test system: MOLT-4
A498 = test system: A498
HT-29 = test system: HT-29
SK-MEL-5 = test system: SK-MEL-5
SK-MEL-2 = test system: SK-MEL-2
SF-295 = test system: SF-295
UACC-62 = test system: UACC-62
CCRF-CEM = test system: CCRF-CEM
LOX IMVI = test system: LOX IMVI
SK-OV-3 = test system: SK-OV-3
HCT-116 = test system: HCT-116

Measured: GI50

NCP(=O)(O)OCC(=O)O
inactive: NCI-H522 > 100 µM | NCI-H23 > 100 µM | OVCAR-3 > 100 µM | SF-268 > 100 µM | DMS-273 > 100 µM | A549 > 100 µM | HOP-62 > 100 µM | IGROV-1 > 100 µM | HOP-92 > 100 µM | SW-620 > 100 µM | ACHN > 100 µM | SR > 100 µM | CAKI-1 > 100 µM | UACC-257 > 100 µM | SNB-78 > 100 µM | TK-10 > 100 µM | HL-60 > 100 µM | HOP-18 > 100 µM | SK-MEL-28 > 100 µM | SN12C > 100 µM | Malme-3M > 100 µM | EKVX > 100 µM | KM12 > 100 µM | UO-31 > 100 µM | U-251 > 100 µM | NCI-H460 > 100 µM | COLO 205 > 100 µM | DMS-114 > 100 µM | SF-539 > 100 µM | SNB-19 > 100 µM | SNB-75 > 100 µM | OVCAR-5 > 100 µM | M14 > 100 µM | XF498 > 100 µM | OVCAR-4 > 100 µM | K562 > 100 µM | DLD-1 > 100 µM | RXF 393 > 100 µM | OVCAR-8 > 100 µM | 786-0 > 100 µM | LXFL 529 > 100 µM | MOLT-4 > 100 µM | A498 > 100 µM | HT-29 > 100 µM | SK-MEL-5 > 100 µM | SK-MEL-2 > 100 µM | SF-295 > 100 µM | UACC-62 > 100 µM | CCRF-CEM > 100 µM | LOX IMVI > 100 µM | SK-OV-3 > 100 µM | HCT-116 > 100 µM
> 100 µM: HCT-15
